Results on 10 compounds are retold here after ChEMBL document CHEMBL3120141, “Discovery of (1R,6S)-5-[4-(1-cyclobutyl-piperidin-4-yloxy)-phenyl]-3,4-diaza-bicyclo[4.1.0]hept-4-en-2-one (R,S-4a): histamine H(3) receptor inverse agonist demonstrating potent cognitive enhancing and wake promoting activity” (Bioorg Med Chem Lett, 2014).

A value given as a limit tells only on which side of the number the result lay.

Series [1] addresses T1, Histamine H3 receptor (Homo sapiens, UniProt Q9Y5N1). The series can be described thus: Inverse agonist activity at human histamine H3 receptor by [35S]GTPgammaS binding assay. It is filed as functional. On the technique in general: Binding of GTPγS marks nucleotide exchange on a G protein.
Series [2] can be described thus: Ratio of drug uptake in brain to plasma in rat at 10 mg/kg, ip after 6 hrs. Details: dose 10 mg/kg, route intraperitoneal; call rule not given here. The conditions noted are these: read-out: BPR. It counts as ADME, organism-based.
Series [3] deals with Rattus norvegicus. As to the kind of experiment: Oral bioavailability in rat at 5 mg/kg. It is filed as ADME, organism-based. As to conditions: in vivo.
Series [4] is described as follows: Cmax in rat at 5 mg/kg, po. It counts as ADME, organism-based. Details: dose 5 mg/kg, route oral. As to conditions: in vivo.
In series [5] the test system is Rattus norvegicus. As to the kind of experiment: AUC in rat at 5 mg/kg, po. It is filed as ADME, organism-based, Plasma. Also noted: dose 5 mg/kg, route oral. As to conditions: in vivo.
Series [6] is described as follows: Volume of distribution at steady state in rat at 1 mg/kg, iv. The conditions noted are these: in vivo, read-out: Vdss. Also noted: dose 1 mg/kg, route intravenous. It is filed as ADME, organism-based.
Series [7] is described as follows: Terminal half life in rat at 1 mg/kg, iv. As to conditions: in vivo, read-out: beta t1/2 (converted). Also noted: dose 1 mg/kg, route intravenous. It counts as ADME, organism-based.
Series [8] addresses Voltage-gated inwardly rectifying potassium channel KCNH2 (Homo sapiens, UniProt Q12809). The series can be described thus: Inhibition of human ERG channel by patch clamp technique.
Series [9] deals with Sodium-dependent dopamine transporter (Homo sapiens) (UniProt Q01959). As to the kind of experiment: Inhibition of dopamine transporter (unknown origin) at 10 uM.
In series [10] the target is Histamine H4 receptor (Homo sapiens) (UniProt Q9H3N8). As to the kind of experiment: Inhibition of human histamine H4 receptor at 10 uM.
For series [11], the target named is Histamine H1 receptor (Homo sapiens) (UniProt P35367). The series can be described thus: Inhibition of human histamine H1 receptor at 10 uM.
For series [12], the target named is Histamine H2 receptor (Homo sapiens) (UniProt P25021). As to the kind of experiment: Inhibition of human histamine H2 receptor at 10 uM.
Series [13] is described as follows: Half life in human liver microsomes. It counts as ADME.
Series [14] in a line: Half life in monkey liver microsomes. It is filed as ADME, Macaca mulatta, Microsome. The conditions noted are these: rhesus monkey. (Liver microsomes are a subcellular fraction often used to study metabolism.)
A short description of series [15]: Half life in rat liver microsomes. It counts as ADME.
Series [16] in a line: Half life in dog liver microsomes. It is filed as ADME, Canis lupus familiaris.
The nature of series [17]: Half life in mouse liver microsomes. It counts as ADME, Microsome.
Series [18] addresses Cytochrome P450 3A4 (Homo sapiens, UniProt P08684). The series can be described thus: Inhibition of CYP3A4 (unknown origin). It is filed as ADME. As to conditions: for inhibition (INH): human.
Series [19] concerns the target Cytochrome P450 2D6 (Homo sapiens, UniProt P10635). As to the kind of experiment: Inhibition of CYP2D6 (unknown origin). The conditions noted are these: for inhibition (INH): human. It is filed as ADME.
Series [20] deals with Cytochrome P450 2C9 (Homo sapiens, UniProt P11712). The series can be described thus: Inhibition of CYP2C9 (unknown origin). It counts as ADME. As to conditions: for inhibition (INH): human.
Series [21] addresses Cytochrome P450 2C19 (Homo sapiens, UniProt P33261). The series can be described thus: Inhibition of CYP2C19 (unknown origin). It counts as ADME. As to conditions: for inhibition (INH): human.
Series [22] addresses T2, Cytochrome P450 1A2 (Homo sapiens, UniProt P05177).
T2 sequence (P05177 whole entry): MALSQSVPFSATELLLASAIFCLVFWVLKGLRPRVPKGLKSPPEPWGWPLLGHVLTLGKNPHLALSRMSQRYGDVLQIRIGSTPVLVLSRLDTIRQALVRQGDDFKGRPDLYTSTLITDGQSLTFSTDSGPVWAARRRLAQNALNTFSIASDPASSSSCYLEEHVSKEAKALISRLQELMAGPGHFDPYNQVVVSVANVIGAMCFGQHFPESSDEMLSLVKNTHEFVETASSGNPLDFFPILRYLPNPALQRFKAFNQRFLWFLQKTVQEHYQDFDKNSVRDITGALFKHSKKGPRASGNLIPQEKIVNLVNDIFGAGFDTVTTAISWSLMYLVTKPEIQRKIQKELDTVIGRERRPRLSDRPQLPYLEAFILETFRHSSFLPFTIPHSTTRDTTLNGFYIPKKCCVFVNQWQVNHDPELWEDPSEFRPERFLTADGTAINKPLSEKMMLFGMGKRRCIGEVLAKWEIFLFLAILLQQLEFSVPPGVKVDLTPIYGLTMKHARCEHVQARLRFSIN
As to the kind of experiment: Inhibition of CYP1A2 (unknown origin). It counts as ADME. As to conditions: for inhibition (INH): human.

For series [23], the target named is Histamine H3 receptor (Rattus norvegicus, UniProt Q9QYN8). As to the kind of experiment: Displacement of [3H]NAMH from rat histamine H3 receptor transfected in CHO cells. It is filed as cell-based.
Series [24] addresses T1, Histamine H3 receptor. As to the kind of experiment: Displacement of [3H]NAMH from human histamine H3 receptor transfected in CHO cells. It counts as cell-based. On the technique in general: In a radioligand displacement assay an active substance lowers the binding of a labelled ligand.
For series [25], the species on record is Homo sapiens. As to the kind of experiment: Selectivity ratio for human histamine H3 receptor over human histamine H4 receptor.
The species named for series [26] is Homo sapiens. As to the kind of experiment: Selectivity ratio for human histamine H3 receptor over human histamine H2 receptor.
The species entered for series [27] is Homo sapiens. The series can be described thus: Selectivity ratio for human histamine H3 receptor over human histamine H1 receptor.
In series [28] the test system is Liver microsome. The series can be described thus: Metabolic stability in dog liver microsomes. It counts as ADME, Canis lupus familiaris.
Series [29] has as its system Liver microsome. The series can be described thus: Metabolic stability in human liver microsomes. It counts as ADME.
Series [30] in a line: Metabolic stability in mouse liver microsomes. It counts as ADME, Microsome.
Series [31] concerns Liver microsome. As to the kind of experiment: Metabolic stability in rat liver microsomes. It is filed as ADME.

Cytochrome P450 2D6, sequence (P10635 whole entry): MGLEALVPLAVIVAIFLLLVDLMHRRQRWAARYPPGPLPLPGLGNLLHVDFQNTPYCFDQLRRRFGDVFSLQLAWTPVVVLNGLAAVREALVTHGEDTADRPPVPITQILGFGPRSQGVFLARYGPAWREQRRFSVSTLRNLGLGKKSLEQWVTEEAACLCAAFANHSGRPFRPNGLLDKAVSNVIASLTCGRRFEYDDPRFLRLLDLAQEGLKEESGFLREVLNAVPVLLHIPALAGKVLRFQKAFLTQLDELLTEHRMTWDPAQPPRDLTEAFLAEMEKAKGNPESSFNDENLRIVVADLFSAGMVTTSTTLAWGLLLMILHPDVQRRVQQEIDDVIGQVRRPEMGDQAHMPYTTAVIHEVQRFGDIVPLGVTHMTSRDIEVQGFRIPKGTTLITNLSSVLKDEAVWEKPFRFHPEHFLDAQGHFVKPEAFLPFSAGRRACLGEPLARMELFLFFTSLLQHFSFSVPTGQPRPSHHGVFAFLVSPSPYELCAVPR
Histamine H3 receptor (Rattus norvegicus, UniProt Q9QYN8), sequence (Q9QYN8 whole entry): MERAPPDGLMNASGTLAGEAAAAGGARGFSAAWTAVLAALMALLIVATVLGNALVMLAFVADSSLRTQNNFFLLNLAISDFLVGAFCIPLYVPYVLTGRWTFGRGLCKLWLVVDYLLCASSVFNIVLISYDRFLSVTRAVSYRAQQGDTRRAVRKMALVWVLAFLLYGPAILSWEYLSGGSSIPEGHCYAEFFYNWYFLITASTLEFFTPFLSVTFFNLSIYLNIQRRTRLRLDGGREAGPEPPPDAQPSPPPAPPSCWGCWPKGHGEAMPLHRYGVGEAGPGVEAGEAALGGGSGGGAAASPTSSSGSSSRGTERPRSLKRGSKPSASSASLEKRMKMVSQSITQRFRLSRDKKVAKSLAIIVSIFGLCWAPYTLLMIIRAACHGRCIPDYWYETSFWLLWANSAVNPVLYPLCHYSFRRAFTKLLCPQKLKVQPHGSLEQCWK
Cytochrome P450 2C19, sequence (P33261 whole entry): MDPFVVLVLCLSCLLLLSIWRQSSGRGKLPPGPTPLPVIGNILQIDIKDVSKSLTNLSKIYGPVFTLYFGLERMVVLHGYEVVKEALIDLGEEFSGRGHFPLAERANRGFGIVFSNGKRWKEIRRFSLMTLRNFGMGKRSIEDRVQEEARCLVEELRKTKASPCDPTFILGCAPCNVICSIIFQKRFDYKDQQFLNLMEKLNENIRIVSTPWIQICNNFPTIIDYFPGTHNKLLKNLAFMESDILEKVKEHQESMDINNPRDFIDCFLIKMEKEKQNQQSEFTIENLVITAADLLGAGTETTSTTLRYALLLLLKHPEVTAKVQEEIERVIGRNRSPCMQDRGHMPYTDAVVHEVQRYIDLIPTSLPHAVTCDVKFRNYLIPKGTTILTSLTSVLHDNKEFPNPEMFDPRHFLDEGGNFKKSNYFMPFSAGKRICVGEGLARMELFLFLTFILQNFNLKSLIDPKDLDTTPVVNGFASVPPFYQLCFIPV
T1 sequence (Q9Y5N1 whole entry): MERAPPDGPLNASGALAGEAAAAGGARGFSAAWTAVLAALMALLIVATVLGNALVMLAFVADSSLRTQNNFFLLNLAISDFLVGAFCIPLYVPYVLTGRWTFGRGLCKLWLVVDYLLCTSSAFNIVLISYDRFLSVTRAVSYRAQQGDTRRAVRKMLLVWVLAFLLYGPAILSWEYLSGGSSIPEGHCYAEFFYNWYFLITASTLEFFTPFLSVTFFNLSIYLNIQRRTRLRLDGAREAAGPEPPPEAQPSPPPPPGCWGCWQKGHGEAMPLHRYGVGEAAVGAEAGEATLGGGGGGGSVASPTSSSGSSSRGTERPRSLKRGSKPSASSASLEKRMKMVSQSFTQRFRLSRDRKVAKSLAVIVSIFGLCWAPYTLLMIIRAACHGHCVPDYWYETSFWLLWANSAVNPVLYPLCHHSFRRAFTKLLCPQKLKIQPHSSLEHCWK
Cytochrome P450 3A4, sequence (P08684 whole entry): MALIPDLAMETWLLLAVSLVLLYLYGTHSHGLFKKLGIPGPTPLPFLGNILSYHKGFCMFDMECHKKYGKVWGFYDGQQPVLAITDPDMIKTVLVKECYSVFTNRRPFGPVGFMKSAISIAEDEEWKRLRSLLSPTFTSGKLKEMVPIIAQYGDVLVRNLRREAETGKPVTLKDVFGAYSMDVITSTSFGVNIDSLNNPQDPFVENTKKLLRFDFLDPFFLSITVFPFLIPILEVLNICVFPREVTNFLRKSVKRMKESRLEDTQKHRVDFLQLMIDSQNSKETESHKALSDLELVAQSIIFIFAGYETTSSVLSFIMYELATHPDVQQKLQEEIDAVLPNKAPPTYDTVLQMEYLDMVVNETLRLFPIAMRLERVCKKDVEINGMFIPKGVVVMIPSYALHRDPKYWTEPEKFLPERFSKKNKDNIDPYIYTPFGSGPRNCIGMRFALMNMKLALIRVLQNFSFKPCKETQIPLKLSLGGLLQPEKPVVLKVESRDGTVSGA
Cytochrome P450 2C9, sequence (P11712 whole entry): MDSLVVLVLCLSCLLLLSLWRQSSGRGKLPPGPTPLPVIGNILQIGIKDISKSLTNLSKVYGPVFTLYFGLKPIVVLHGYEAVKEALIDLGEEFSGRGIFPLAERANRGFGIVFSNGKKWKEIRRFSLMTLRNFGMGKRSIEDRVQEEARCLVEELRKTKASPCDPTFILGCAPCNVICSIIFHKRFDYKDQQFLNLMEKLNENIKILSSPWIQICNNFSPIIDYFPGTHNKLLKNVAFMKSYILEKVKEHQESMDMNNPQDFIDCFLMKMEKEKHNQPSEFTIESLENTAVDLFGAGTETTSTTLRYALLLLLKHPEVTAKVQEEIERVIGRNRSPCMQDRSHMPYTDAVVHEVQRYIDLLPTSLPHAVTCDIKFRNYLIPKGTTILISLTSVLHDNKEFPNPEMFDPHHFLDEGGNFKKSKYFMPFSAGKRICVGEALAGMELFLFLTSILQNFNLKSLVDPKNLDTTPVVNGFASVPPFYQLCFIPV
Voltage-gated inwardly rectifying potassium channel KCNH2, sequence (Q12809 whole entry): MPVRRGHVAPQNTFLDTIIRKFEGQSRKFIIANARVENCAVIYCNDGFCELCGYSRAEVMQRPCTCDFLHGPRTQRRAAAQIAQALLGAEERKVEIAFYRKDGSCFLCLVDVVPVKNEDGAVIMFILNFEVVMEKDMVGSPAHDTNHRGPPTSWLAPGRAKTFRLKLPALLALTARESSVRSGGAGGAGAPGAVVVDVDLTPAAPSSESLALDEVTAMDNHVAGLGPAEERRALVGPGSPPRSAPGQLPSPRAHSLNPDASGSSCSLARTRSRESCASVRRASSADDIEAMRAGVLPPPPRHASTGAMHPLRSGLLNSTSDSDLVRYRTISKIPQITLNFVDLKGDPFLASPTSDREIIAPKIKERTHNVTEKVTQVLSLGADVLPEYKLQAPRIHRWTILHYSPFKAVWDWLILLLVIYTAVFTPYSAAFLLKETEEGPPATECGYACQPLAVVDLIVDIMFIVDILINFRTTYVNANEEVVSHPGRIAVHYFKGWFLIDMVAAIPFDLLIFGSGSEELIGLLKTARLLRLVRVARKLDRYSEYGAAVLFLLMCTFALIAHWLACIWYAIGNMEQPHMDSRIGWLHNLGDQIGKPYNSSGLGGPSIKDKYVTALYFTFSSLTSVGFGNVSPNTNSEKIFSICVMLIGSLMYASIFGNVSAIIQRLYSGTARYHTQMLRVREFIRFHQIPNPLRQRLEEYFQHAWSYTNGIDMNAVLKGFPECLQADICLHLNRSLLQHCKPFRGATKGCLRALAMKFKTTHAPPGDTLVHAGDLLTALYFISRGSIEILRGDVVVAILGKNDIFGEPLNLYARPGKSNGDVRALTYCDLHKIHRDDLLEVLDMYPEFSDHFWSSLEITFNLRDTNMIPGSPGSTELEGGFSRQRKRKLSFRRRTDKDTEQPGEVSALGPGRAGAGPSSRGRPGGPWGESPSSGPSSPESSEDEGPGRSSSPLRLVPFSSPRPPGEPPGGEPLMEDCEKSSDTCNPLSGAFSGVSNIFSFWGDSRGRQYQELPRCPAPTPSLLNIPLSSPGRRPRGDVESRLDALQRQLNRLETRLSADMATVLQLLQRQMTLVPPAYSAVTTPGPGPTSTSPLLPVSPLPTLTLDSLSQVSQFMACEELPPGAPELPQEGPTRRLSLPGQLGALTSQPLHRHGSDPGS
Histamine H2 receptor (Homo sapiens), sequence (P25021 whole entry): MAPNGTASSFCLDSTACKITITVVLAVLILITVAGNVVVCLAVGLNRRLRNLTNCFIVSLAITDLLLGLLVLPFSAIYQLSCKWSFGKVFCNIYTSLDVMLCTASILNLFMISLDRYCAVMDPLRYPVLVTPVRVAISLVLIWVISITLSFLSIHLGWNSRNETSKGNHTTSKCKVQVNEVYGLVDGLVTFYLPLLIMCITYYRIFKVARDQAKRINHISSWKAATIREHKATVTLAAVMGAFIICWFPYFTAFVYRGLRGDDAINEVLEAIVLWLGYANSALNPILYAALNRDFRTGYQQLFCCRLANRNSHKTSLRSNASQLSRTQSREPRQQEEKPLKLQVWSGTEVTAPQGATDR
Sodium-dependent dopamine transporter (Homo sapiens), sequence (Q01959 whole entry): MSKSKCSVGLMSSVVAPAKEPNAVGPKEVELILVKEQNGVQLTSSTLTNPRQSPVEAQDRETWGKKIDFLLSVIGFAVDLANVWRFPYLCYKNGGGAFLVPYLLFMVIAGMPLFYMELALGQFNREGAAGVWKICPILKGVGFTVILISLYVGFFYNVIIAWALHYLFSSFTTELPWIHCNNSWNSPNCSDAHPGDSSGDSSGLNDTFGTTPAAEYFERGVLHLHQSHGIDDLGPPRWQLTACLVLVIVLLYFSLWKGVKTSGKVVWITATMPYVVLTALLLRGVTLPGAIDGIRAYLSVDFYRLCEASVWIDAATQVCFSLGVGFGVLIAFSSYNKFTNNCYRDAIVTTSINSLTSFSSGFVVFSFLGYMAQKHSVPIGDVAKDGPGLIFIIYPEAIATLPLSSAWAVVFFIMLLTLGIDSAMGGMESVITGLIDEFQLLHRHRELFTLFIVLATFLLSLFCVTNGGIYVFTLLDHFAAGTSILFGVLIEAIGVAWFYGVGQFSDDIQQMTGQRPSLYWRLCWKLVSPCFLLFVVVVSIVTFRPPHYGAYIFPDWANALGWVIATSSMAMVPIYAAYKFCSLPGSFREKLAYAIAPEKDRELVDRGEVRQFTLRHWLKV

One may read the EC50 as the midpoint of the concentration-response curve. For orientation: Cmax means the peak of the concentration-time curve. The AUC is the area under the concentration-time curve, a measure of exposure. One may read the IC50 as the midpoint of a concentration-inhibition curve. For orientation: inhibition means the relative decrease from the control value, in per cent. Broadly, the Ki is a dissociation constant, usually derived from enzyme kinetics or from competition with a known ligand. For the compound `O=C1NN=C(c2ccc(OC3CCN(C4CCC4)CC3)cc2)[C@@H]2C[C@H]12`, the EC50 in series [1] was 0.5 nM. Moreover, the Kp at 6 h in series [2] was found to be 5. The same compound displayed a F in series [3] of 66%. The Cmax in series [4] came to 649 ng/mL. Besides, the AUC in series [5] came to 5144 ng·h/mL. Further, the Vd in series [6] is 3 L/kg. Besides, the half-life in series [7] is 96 min; in [13], greater than 40 min; in [14] it was greater than 40 min; in [15], greater than 40 min; in series [16], greater than 40 min; in series [17], greater than 40 min. Also, the IC50 in series [8] was 6000 nM; in series [18] it was greater than 30000 nM; in series [19], greater than 30000 nM; in [20], greater than 30000 nM; in series [21] it was greater than 30000 nM; in series [22], greater than 30000 nM. Also, the inhibition in series [9] was 63%; in [10], less than 10%; in [11], less than 10%; in [12], less than 10%. The Ki in [23] was 12 nM; in series [24] it was 6.8 nM.

On to `CC(C)N1N=C(c2ccc(OC3CCN(C4CCC4)CC3)cc2)C2CC2C1=O` (racemic), for which the Selectivity ratio in [25], in [26] and in series [27] was greater than 1000 throughout. In addition, the Ki in series [23] amounted to 5.6 nM; in series [24] it was 6.9 nM.

Take `CN1N=C(c2ccc(OC3CCN(C4CCCC4)CC3)cc2)C2CC2C1=O` (racemic): the Selectivity ratio in series [25], in series [26] and in series [27] was greater than 1000 each time. For the same compound, the Ki came to 5.7 nM in series [23] and 3.6 nM in series [24].

Turning to `CC(C)N1CCC(Oc2ccc(C3=NNC(=O)C4CC34)cc2)CC1` (racemic), the “inhibition (INH)” value in [18], in [19], in series [20], in series [21] and in series [22] was “Not Active” each time. The Stability entry in series [28], in series [29], in series [30] and in [31] was “Stable” each time. Further, the Selectivity ratio in [25], in [26] and in series [27] was greater than 1000 in each case. The Ki in series [23] was determined as 51 nM; in series [24], 9.1 nM.

In the case of `O=C1NN=C(c2ccc(OC3CCN(C4CCC4)CC3)cc2)C2CC12` (racemic), the Ki in [23] worked out at 8.4 nM; in [24], 4.7 nM.

With `CC(C)N1CCC(Oc2ccc(C3=NN(C)C(=O)C4CC34)cc2)CC1` (racemic), the Selectivity ratio in series [25], in series [26] and in [27] was greater than 1000 each time. In addition, the Ki came to 17 nM in series [23] and 4 nM in [24].

For `O=C1NN=C(c2ccc(OC3CCN(C4CCCC4)CC3)cc2)C2CC12` (racemic), the “inhibition (INH)” value in series [18], in series [19], in series [20], in series [21] and in [22] was “Not Active” each time. In addition, the Stability result in series [28], in series [29], in series [30] and in [31] was “Stable” throughout. Further, the Selectivity ratio in series [25], in series [26] and in [27] was greater than 1000 in each case. Also, the values for the Ki in series [23] and in [24] were 8.1 nM and 3.7 nM, respectively.

Consider `O=C1C2CC2C(c2ccc(OC3CCN(C4CCC4)CC3)cc2)=NN1c1ccc(F)cc1` (racemic), for which the Selectivity ratio in series [25], in series [26] and in series [27] was greater than 1000 throughout. For the same compound, the results for the inhibition constant Ki in series [23] and in series [24] were 6.7 nM and 3.5 nM, respectively.

In the case of `CCN1N=C(c2ccc(OC3CCN(C4CCC4)CC3)cc2)C2CC2C1=O` (racemic), the Selectivity ratio in series [25], in series [26] and in [27] was greater than 1000 in each case. Moreover, the results for the Ki in [23] and in series [24] were 8 nM and 4.5 nM, respectively.

In the case of `CCN1CCC(Oc2ccc(C3=NNC(=O)C4CC34)cc2)CC1` (racemic), the figures for the Ki in series [23] and in series [24] were 228 nM and 173 nM, respectively.
